Assay results taken from patent US9669003B2, “Use of flavone and flavanone derivatives in preparation of sedative and hypnotic drugs” (priority 2012, dated 2017).
Marks after values point to notes of the source that are not given here.

Columns and labels:
Format in all cases: in vivo
Kunming mice [1] = experiment: Influence on hypnosis effect with pentobarbital sodium doses below the threshold (25 mg/kg i.p.); conditions: pentobarbital sodium 25 mg/kg i.p. 60 min later, sleep observed in 30 min, n = 10
Excerpt: (§1) 1.1 Animals for experiments: Kunming mice, weighting 18.9˜22.2 g for females, and 20.2˜23.0 g for males, licensed under SCXK-(Ji) 2007-0003, and provided by The experimental animal centre, Jilin University.
(§2) 1.2 Chemicals for experiments: The flavone derivatives provided in Examples 1-41 and the flavanone derivatives provided in Examples 42-71 are all formulated with 0.5% sodium carboxymethyl cellulose as solutions with required concentrations.
(§3) 1.3 Grouping of animals: 6420 animals are employed in the entire experiments and 2140 of the animals are randomly divided into 214 groups by gender, and the […] include: control group, low dosage group for each experimental drugs (25 mg/kg), medium dosage group for each experimental drugs (50 mg/kg), and high dosage group for each experimental drugs (100 mg/kg). Each group has 10 animals and either female or male constitutes half of the group. The groups are used in behavior observation and voluntary action observation. The other 4280 animals are randomly divided into 214 groups by gender respectively (the grouping way is the same with that described above). Each group has 20 animals and either female or male constitutes half of the group. In each group, 10 animals are used in hypnosis experimentations with pentobarbital sodium doses below the threshold, and the other 10 animals are used hypnosis experimentations with pentobarbital sodium doses at the threshold.
1.5.3 Influence on Hypnosis Effect with Mice Pentobarbital Sodium Doses Below the Threshold
(§4) The drug is intragastric administered in mice for single time, 2 animals of each group are given drug per round with the dosing interval of 40 min (±5 min). According to the administration round, in 60 min (±5 min) of each round after the drug administration, the animals were intraperitoneally injected 0.3% sodium pentobarbital 25 mg/kg, respectively. Sleep condition of the animals were observed within 30 min (under sleep determination standard of loss of righting reflex more than 1 min). After animals undergo loss of righting reflex, number of the animals is recorded, to calculate sleep percentage.
(§5) Number of autonomic activities is detected by leneve Test for homogeneity of variance. If the homogeneity of variance is good (P>0.05), statistical analysis is performed with ANOVA. If ANOVA have statistical significance (P≦0.05), Dunnett's test for multiple comparisons analysis is performed. Number of animals of sleeping mice is applied of ANOVA. Incidence rate of animal asleep is applied of χ2 test. Sleep latency and sleep duration are recorded in min, averaged by group, represented by standard deviation, and undergo statistical analysis using ANOVA.

Kunming mice [2] = experiment: Influence on hypnosis effect with pentobarbital sodium doses at the threshold (50 mg/kg i.p.); conditions: pentobarbital sodium 50 mg/kg i.p. 60 min later, x ± s, n = 10
Excerpt: as §1, §2, §3
1.5.4 Influence on Hypnosis Effect with Mice Pentobarbital Sodium Doses at the Threshold
as §4, with “50” for “25”, “Time to fall asleep (sleep latency) and sleep duration” for “Sleep condition”, “recorded” for “observed”, “under” for “30 min (under”, “min.” for “min). After animals undergo loss of righting reflex, number of the animals is recorded, to calculate sleep percentage.”
as §5

Kunming mice [3] = experiment: Influence on autonomic activity of normal mice (ZIL-2 mice autonomic activity meter, counts within 10 min); conditions: intragastric, x ± s, n = 10; for Times of activities in 1 h after drug administration/10 min: 1 h after administration; for Times of activities in 2 h after drug administration/10 min: 2 h after administration; for Times of activities in 24 h after drug administration/10 min: 24 h after administration
Excerpt: as §1, §2, §3
1.4 Experimental instrument and agents: ZIL-2 mice autonomic activity meter, production of Institute of Materia Medica of Chinese Academy of Medical Sciences; pentobarbital sodium, Lot: 100808, 25 g/bottle, Beijing Chemical Reagent Company equipment imported from Germany.
1.5.2 Influence on Autonomic Activity of Normal Mice
After observing the general behavior, in 1 h, 2 h and 24 h after drug administration, respectively, ZIL-2 mice autonomic activity meter is put respectively. Number of autonomic activities of each group of mice is measured within 10 min. Results among groups are compared.
as §5

[4] = test drug 25 mg/kg intragastric single dose
[5] = test drug 50 mg/kg intragastric single dose
[6] = test drug 100 mg/kg intragastric single dose
[7] = 25 mg/kg intragastric single dose
[8] = 50 mg/kg intragastric single dose
[9] = 100 mg/kg intragastric single dose

SMILES	Number of sleeping animals (Kunming mice [1]; [4])	rate of sleeping (%) (Kunming mice [1]; [4])	Number of sleeping animals (Kunming mice [1]; [5])	rate of sleeping (%) (Kunming mice [1]; [5])	Number of sleeping animals (Kunming mice [1]; [6])	rate of sleeping (%) (Kunming mice [1]; [6])	duration of sleep (Kunming mice [2]; [7])	time to sleep (Kunming mice [2]; [7])	duration of sleep (Kunming mice [2]; [8])	time to sleep (Kunming mice [2]; [8])	duration of sleep (Kunming mice [2]; [9])	time to sleep (Kunming mice [2]; [9])	Times of activities in 1 h after drug administration/10 min (Kunming mice [3]; 25 mg/kg)	Times of activities in 2 h after drug administration/10 min (Kunming mice [3]; 25 mg/kg)	Times of activities in 24 h after drug administration/10 min (Kunming mice [3]; 25 mg/kg)	Times of activities in 1 h after drug administration/10 min (Kunming mice [3]; 50 mg/kg)	Times of activities in 2 h after drug administration/10 min (Kunming mice [3]; 50 mg/kg)	Times of activities in 24 h after drug administration/10 min (Kunming mice [3]; 50 mg/kg)	Times of activities in 1 h after drug administration/10 min (Kunming mice [3]; 100 mg/kg)	Times of activities in 2 h after drug administration/10 min (Kunming mice [3]; 100 mg/kg)	other results
COc1ccc(-c2cc(=O)c3c(O)c(OC)c(OC)c(OC)c3o2)cc1OC [Example 11, 5-hydroxyl-6,7,8,3′,4′-penta methoxyl-flavone]	5	50** %	6	60** %	8	80*** %	47.25 ± 14.42 min	3.42 ± 1.37 min	63.75 ± 20.27 min	3.13 ± 1.21 min	78.54 ± 19.27 min	2.13 ± 1.33 min	243.1 ± 53.5 /10 min	237.3 ± 45.3 /10 min	291.7 ± 72.5 /10 min	187.2 ± 41.4 /10 min	179.7 ± 46.0 /10 min	287.8 ± 89.1 /10 min	115.9 ± 48.5 /10 min	126.7 ± 48.7 /10 min	Times of activities in 24 h after drug administration/10 min (Kunming mice [3]; 100 mg/kg): 315.2 ± 75.4 /10 min
COc1ccc(O)cc1-c1cc(=O)c2c(O)cc(OC)c(OC)c2o1 [Example 12, 5,5′-dihydroxyl-7,8,2′-trimethoxyl-flavone]	5	50** %	8	80*** %	8	80*** %	22.71 ± 26.17 min	5.43 ± 2.05 min	28.68 ± 27.56 min	5.01 ± 2.00 min	38.55 ± 23.27 min	4.25 ± 1.16 min	255.9 ± 39.8 /10 min	284.2 ± 41.7 /10 min	303.1 ± 69.1 /10 min	179.5 ± 51.4 /10 min	168.5 ± 54.3 /10 min	317.9 ± 55.3 /10 min	153.7 ± 48.4 /10 min	135.9 ± 48.7 /10 min	Times of activities in 24 h after drug administration/10 min (Kunming mice [3]; 100 mg/kg): 302.1 ± 89.0 /10 min
COc1cc(-c2cc(=O)c3c(OC)c(OC)c(OC)cc3o2)cc(OC)c1OC [Example 13, 5,6,7,3′,4′,5′-hexamethoxyl-flavone]	4	40* %	6	60** %	7	70** %	39.25 ± 17.25 min	4.26 ± 1.23 min	57.33 ± 29.41 min	3.93 ± 1.15 min	59.23 ± 25.36 min	3.83 ± 1.21 min	293.2 ± 47.1 /10 min	278.5 ± 42.8 /10 min	302.8 ± 67.2 /10 min	280.7 ± 61.3 /10 min	278.6 ± 47.5 /10 min	309.2 ± 81.3 /10 min	247.2 ± 35.6 /10 min	225.3 ± 44.2 /10 min	Times of activities in 24 h after drug administration/10 min (Kunming mice [3]; 100 mg/kg): 291.5 ± 69.5 /10 min
COc1ccc(-c2cc(=O)c3c(OC)c(OC)c(OC)c(OC)c3o2)cc1OC [Example 14, 5,6,7,8,3′,4′-hexamethoxyl-flavone]	4	40* %	6	60** %	7	70** %	34.12 ± 28.26 min	4.78 ± 1.81 min	57.34 ± 19.33 min	4.25 ± 1.55 min	60.26 ± 32.36 min	3.93 ± 1.57 min	289.9 ± 42.3 /10 min	281.1 ± 41.6 /10 min	313.2 ± 74.4 /10 min	178.6 ± 40.2 /10 min	183.3 ± 51.3 /10 min	324.7 ± 79.6 /10 min	159.1 ± 48.1 /10 min	133.9 ± 49.7 /10 min	Times of activities in 24 h after drug administration/10 min (Kunming mice [3]; 100 mg/kg): 322.6 ± 61.2 /10 min
COc1cc(-c2cc(=O)c3c(OC)c(OC)c(OC)c(OC)c3o2)cc(OC)c1OC [Example 15, 5,6,7,8,3′,4′,5′-heptamethoxyl-flavone]	3	30%	6	60** %	8	80*** %	39.93 ± 15.22 min	4.31 ± 1.65 min	51.53 ± 21.35 min	3.53 ± 1.22 min	58.25 ± 21.48 min	3.29 ± 1.58 min	287.1 ± 39.1 /10 min	255.1 ± 42.9 /10 min	308.5 ± 75.2 /10 min	254.7 ± 41.2 /10 min	239.9 ± 42.6 /10 min	317.4 ± 95.6 /10 min	179.6 ± 44.3 /10 min	152.5 ± 36.9 /10 min	Times of activities in 24 h after drug administration/10 min (Kunming mice [3]; 100 mg/kg): 287.8 ± 89.1 /10 min
